This is an account of results in patent publication US12595275B2, “Fluorine-containing compound and anti-cancer medical use thereof” (ASCENTAWITS PHARMACEUTICALS, LTD., priority 2019, dated 2026).

One assay concerns H460 cancer cells. Description: H460 proliferation assay in the presence of the specific AKR1C3 enzyme inhibitor TH-3021. Conditions: AKR1C3 inhibitor TH-3021 at 3 micromolar, added two hours before compound treatment, read-out: IC50 (nM) obtained when the AKR1C3 inhibitor TH-3021 was added. Format: cell-based, human. The method, then:
(§1) Specifically, exponentially growing cells were seeded at a density of 4×10^3 cells per well in a 96 well plate and incubated at 37° C. in 5% CO2, 95% air and 100% relative humidity for 24 hours prior to addition of test compounds. Compounds were solubilized in 100% DMSO at 200 times the desired final test concentration. At the time of drug addition, compounds were further diluted to 4 times the desired final concentration with complete medium. Aliquots of 50 μl of compound at specified concentrations were added to microtiter wells already containing 150 μl of medium, resulting in the final drug concentration reported. After drug addition, the plates were incubated for an additional 2 hours at 37° C., 5% CO2, 95% air, and 100% relative humidity, then the drug was washed off and fresh medium was added and the plates were incubated for addition 70 hrs at 37° C., 5% CO2, 95% air and 100% relative humidity. At the end of this incubation, the viable cells were quantified using the AlamarBlue assay.
Similarly, in order to further verify that the compounds are activated by human AKR1C3 ([…] family 1 member C3), the effect of some of the compounds on the proliferation of H460 cancer cells was tested in the presence of a specific AKR1C3 enzyme inhibitor (at 3 micromolar concentration). The inhibitor-added compound solution was added to the cell culture two hours before the treatment with the compound. The inhibitor used was compound 36, i.e.,
[drawing 17] (TH-3021) in Flanagan et al., Bioorganic and Medicinal Chemistry (2014), pages 962-977.

Assay [1] deals with H460 non-small cell lung cancer human tumor cell line. The assay can be described thus: In vitro human tumor cell line cytotoxicity (proliferation) assay, H460. The class given is cell-based. Conditions: NCI-H460, H460 cells, 2 hrs compound exposure, wash, additional 70 hrs incubation, AlamarBlue. As to the method: In vitro human tumor cell line cytotoxicity assays.
In vitro proliferation data on the H460 non-small cell lung cancer human tumor cell line is reported below in the compound table.
as §1
(Alamar Blue is a resazurin reagent that responds to reducing activity.)

Like-named read-outs stand apart in the source and are kept apart here.

The IC50 is the concentration needed to halve the response being measured. In the case of `CN(C)C(=O)c1ccc(Oc2cc(COc3c(F)cc(COP(=O)(N4CC4)N4CC4)cc3F)ccc2[N+](=O)[O-])cc1` [Compound No. 1], the IC50 in the assay with H460 cancer cells turned out to be 460 nM; in assay [1] it was 1.97 nM.

Regarding `CN(C)C(=O)c1ccc(Oc2cc(COc3c(F)c(F)c(COP(=O)(N4CC4)N4CC4)c(F)c3F)ccc2[N+](=O)[O-])cc1` [Compound No. 2], the figures for the IC50 (in the assay with H460 cancer cells; in assay [1]) were above 1000 nM and 0.352 nM, respectively.

Turning to `CN(C)C(=O)c1cccc(Oc2cc(COc3c(F)c(F)c(COP(=O)(N4CC4)N4CC4)c(F)c3F)ccc2[N+](=O)[O-])c1` [Compound No. 3], the IC50 with H460 cancer cells was above 1000 nM; in assay [1], 0.417 nM.

Consider `O=[N+]([O-])c1ccc(COc2c(F)cc(COP(=O)(N3CC3)N3CC3)cc2F)cc1Oc1ccc(C(F)(F)F)cc1` [Compound No. 4], for which the IC50 with H460 cancer cells is above 1000 nM; in assay [1], 9.31 nM.

Take `O=[N+]([O-])c1ccc(COc2c(F)cc(COP(=O)(N3CC3)N3CC3)cc2F)cc1Oc1ccc(Cl)nc1` [Compound No. 5]: the IC50 worked out at 228 nM with H460 cancer cells and 5.87 nM in assay [1].

As for `CN(C)C(=O)c1cccc(Oc2cc(C(OP(=O)(N3CC3)N3CC3)C(F)(F)F)ccc2[N+](=O)[O-])c1` (centres unmarked) [Compound No. 6], the IC50 in the assay on H460 cancer cells is 813 nM; in assay [1] it was 1.27 nM.

Regarding `O=[N+]([O-])c1ccc(C(OP(=O)(N2CC2)N2CC2)C(F)(F)F)cc1Oc1ccc(C(F)(F)F)cc1` (centres unmarked) [Compound No. 7], the IC50 in the assay on H460 cancer cells was above 1000 nM; in assay [1], 25.6 nM.

Consider `O=[N+]([O-])c1ccc(COc2c(F)c(F)c(COP(=O)(N3CC3)N3CC3)c(F)c2F)cc1Oc1ccc(C(F)(F)F)cc1` [Compound No. 8], for which the IC50 with H460 cancer cells was above 1000 nM; in assay [1] it was 0.526 nM.

Consider `O=[N+]([O-])c1ccc(C(OP(=O)(N2CC2)N2CC2)C(F)(F)F)cc1Oc1ccc(-c2ccc(F)cc2)cc1` (centres unmarked) [Compound No. 9], for which the figures for the 50% inhibitory concentration (IC50) (in the assay on H460 cancer cells; in assay [1]) were above 1000 nM and 18.4 nM, respectively.

Take `O=[N+]([O-])c1ccc(C(OP(=O)(N2CC2)N2CC2)C(F)(F)F)cc1Oc1ccc(OC(F)(F)F)cc1` (centres unmarked) [Compound No. 11]: the IC50 is above 1000 nM with H460 cancer cells and 137 nM in assay [1].

`O=[N+]([O-])c1ccc(C(OP(=O)(N2CC2)N2CC2)C(F)(F)F)cc1Oc1ccc(F)c(C(F)(F)F)c1` (centres unmarked) [Compound No. 12]: the results for the IC50 (with H460 cancer cells; in assay [1]) were above 1000 nM and 87.3 nM, respectively.

On to `O=[N+]([O-])c1ccc(C(OP(=O)(N2CC2)N2CC2)C(F)(F)F)cc1Oc1cnc2ccccc2c1` (centres unmarked) [Compound No. 13], for which the IC50 in the assay with H460 cancer cells was above 1000 nM; in assay [1] it was 42.2 nM.

With `O=[N+]([O-])c1ccc(C(OP(=O)(N2CC2)N2CC2)C(F)(F)F)cc1Oc1cccc(-c2ccc(F)cc2)c1` (centres unmarked) [Compound No. 14], the figures for the half-maximal inhibitory concentration (IC50) (in the assay with H460 cancer cells; in assay [1]) were above 1000 nM and 30 nM, respectively.

With `O=[N+]([O-])c1ccc(C(OP(=O)(N2CC2)N2CC2)C(F)(F)F)cc1Oc1ccc(-c2ccc(F)cc2F)cc1` (centres unmarked) [Compound No. 15], the IC50 in the assay on H460 cancer cells (Homo sapiens, NCI-H460, 2 h) was above 1000 nM; in assay [1] it was 11.4 nM.

On to `O=[N+]([O-])c1ccc(C(OP(=O)(N2CC2)N2CC2)C(F)(F)F)cc1Oc1ccc(-c2ccc(F)cc2)c(F)c1` (centres unmarked) [Compound No. 16], for which the IC50 in the assay with H460 cancer cells was above 1000 nM; in assay [1] it was 6.78 nM.

Regarding `O=[N+]([O-])c1ccc(C(OP(=O)(N2CC2)N2CC2)C(F)(F)F)cc1Oc1ccc(-c2ccc(F)cc2F)c(F)c1` (centres unmarked) [Compound No. 17], the IC50 is above 1000 nM in the assay with H460 cancer cells and 7.26 nM in assay [1].

With `O=[N+]([O-])c1ccc(C(OP(=O)(N2CC2)N2CC2)C(F)(F)F)cc1Oc1ccc(-c2ccc(F)cc2)nc1` (centres unmarked) [Compound No. 18], the IC50 with H460 cancer cells is above 1000 nM; in assay [1] it was 35.5 nM.

For `O=[N+]([O-])c1ccc(C(OP(=O)(N2CC2)N2CC2)C(F)(F)F)cc1Oc1ccc(-c2ccc(C(F)(F)F)cc2)nc1` (centres unmarked) [Compound No. 19], the IC50 was above 1000 nM with H460 cancer cells and 313 nM in assay [1].

As for `O=[N+]([O-])c1ccc(C(OP(=O)(N2CC2)N2CC2)C(F)(F)F)cc1Oc1ccc(-c2ccc(F)cn2)cc1` (centres unmarked) [Compound No. 20], the IC50 in the assay on H460 cancer cells was above 1000 nM; in assay [1], 46.8 nM.

Consider `O=C(c1cccc(Oc2cc(C(OP(=O)(N3CC3)N3CC3)C(F)(F)F)ccc2[N+](=O)[O-])c1)N1CCCCC1` (centres unmarked) [Compound No. 21], for which the figures for the concentration for half-maximal inhibition (IC50) (in the assay on H460 cancer cells; in assay [1]) were 176 nM and 6.98 nM, respectively.

Turning to `O=C(c1cccc(Oc2cc(C(OP(=O)(N3CC3)N3CC3)C(F)(F)F)ccc2[N+](=O)[O-])c1)N1CCC(F)(F)CC1` (centres unmarked) [Compound No. 22], the half-inhibitory concentration (IC50) with H460 cancer cells is 139 nM; in assay [1], 1.37 nM.

For the compound `O=C(c1cccc(Oc2cc(C(OP(=O)(N3CC3)N3CC3)C(F)(F)F)ccc2[N+](=O)[O-])c1)N1CCCC1` (centres unmarked) [Compound No. 23], the values for the IC50 (with H460 cancer cells; in assay [1]) were 795 nM and 6.04 nM, respectively.

Consider `CC1(C)CCN(C(=O)c2cccc(Oc3cc(C(OP(=O)(N4CC4)N4CC4)C(F)(F)F)ccc3[N+](=O)[O-])c2)CC1` (centres unmarked) [Compound No. 24], for which the IC50 is above 1000 nM in the assay with H460 cancer cells and 4.33 nM in assay [1].

On to `O=C(c1cccc(Oc2cc(C(OP(=O)(N3CC3)N3CC3)C(F)(F)F)ccc2[N+](=O)[O-])c1)N1CCC(C(F)(F)F)CC1` (centres unmarked) [Compound No. 25], for which the half-inhibitory concentration (IC50) in the assay with H460 cancer cells was found to be 179 nM; in assay [1] it was 1.86 nM.

Regarding `O=C(c1cccc(Oc2cc(C(OP(=O)(N3CC3)N3CC3)C(F)(F)F)ccc2[N+](=O)[O-])c1)N1CCC(O)CC1` (centres unmarked) [Compound No. 26], the IC50 with H460 cancer cells is 175 nM; in assay [1], 1.2 nM.

On to `CN(C)C(=O)c1ccc(Oc2cc(C(OP(=O)(N3CC3)N3CC3)C(F)(F)F)ccc2[N+](=O)[O-])cc1` (centres unmarked) [Compound No. 27], for which the values for the IC50 (in the assay with H460 cancer cells; in assay [1]) were above 1000 nM and 9.32 nM, respectively.

In the case of `O=C(c1ccc(Oc2cc(C(OP(=O)(N3CC3)N3CC3)C(F)(F)F)ccc2[N+](=O)[O-])cc1)N1CCCCC1` (centres unmarked) [Compound No. 28], the 50% inhibitory concentration (IC50) in the assay with H460 cancer cells was 649 nM; in assay [1], 2.36 nM.

In the case of `O=C(c1ccc(Oc2cc(C(OP(=O)(N3CC3)N3CC3)C(F)(F)F)ccc2[N+](=O)[O-])cc1)N1CCC(C(F)(F)F)CC1` (centres unmarked) [Compound No. 29], the IC50 with H460 cancer cells is above 1000 nM; in assay [1], 60.1 nM.

As to `O=C(c1ccc(Oc2cc(C(OP(=O)(N3CC3)N3CC3)C(F)(F)F)ccc2[N+](=O)[O-])cc1)N1CCC(c2ccccc2)CC1` (centres unmarked) [Compound No. 30], the half-inhibitory concentration (IC50) in the assay on H460 cancer cells is above 1000 nM; in assay [1], 79.9 nM.

With `CN(C)C(=O)c1ccc(Oc2cc(COc3cc(F)c(COP(=O)(N4CC4)N4CC4)cc3Cl)ccc2[N+](=O)[O-])cc1` [Compound No. 34], the IC50 is above 1000 nM in the assay on H460 cancer cells and 38.5 nM in assay [1].

`O=C(c1cccc(Oc2cc(COc3c(F)cc(COP(=O)(N4CC4)N4CC4)cc3F)ccc2[N+](=O)[O-])c1)N1CC(F)C1` [Compound No. 36]: the results for the IC50 (in the assay with H460 cancer cells; in assay [1]) were 238 nM and below 4.37 nM, respectively.

Regarding `N#Cc1ccc(Oc2cc(COc3c(F)cc(COP(=O)(N4CC4)N4CC4)cc3F)ccc2[N+](=O)[O-])cc1` [Compound No. 37], the values for the 50% inhibitory concentration (IC50) (in the assay with H460 cancer cells; in assay [1]) were 136 nM and 12.3 nM, respectively.

For the compound `O=C(c1cccc(Oc2cc(COc3c(F)cc(COP(=O)(N4CC4)N4CC4)cc3F)ccc2[N+](=O)[O-])c1)N1CC(F)(F)C1` [Compound No. 38], the values for the IC50 (with H460 cancer cells; in assay [1]) were 267 nM and 5.53 nM, respectively.

`N#Cc1cccc(Oc2cc(COc3c(F)cc(COP(=O)(N4CC4)N4CC4)cc3F)ccc2[N+](=O)[O-])c1` [Compound No. 39]: the IC50 in the assay on H460 cancer cells stood at 137 nM; in assay [1], 7.79 nM.

`O=[N+]([O-])c1ccc(C(OP(=O)(N2CC2)N2CC2)C(F)(F)F)cc1Oc1ccc2ncccc2c1` (centres unmarked) [Compound No. 40]: the figures for the IC50 (in the assay on H460 cancer cells; in assay [1]) were above 1000 nM and 14.7 nM, respectively.

As for `CN(C(=O)c1ccc(Oc2cc(C(OP(=O)(N3CC3)N3CC3)C(F)(F)F)ccc2[N+](=O)[O-])cc1)c1ccccc1` (centres unmarked) [Compound No. 41], the half-inhibitory concentration (IC50) was found to be 341 nM in the assay on H460 cancer cells and 2.54 nM in assay [1].

With `Cc1nc2ccc(Oc3cc(C(OP(=O)(N4CC4)N4CC4)C(F)(F)F)ccc3[N+](=O)[O-])cc2s1` (centres unmarked) [Compound No. 42], the half-inhibitory concentration (IC50) was above 1000 nM in the assay on H460 cancer cells and 29.3 nM in assay [1].

For the compound `Cn1ncc2cc(Oc3cc(C(OP(=O)(N4CC4)N4CC4)C(F)(F)F)ccc3[N+](=O)[O-])ccc21` (centres unmarked) [Compound No. 43], the concentration for half-maximal inhibition (IC50) in the assay on H460 cancer cells amounted to 102 nM; in assay [1] it was 30.4 nM.

As for `O=[N+]([O-])c1ccc(C(OP(=O)(N2CC2)N2CC2)C(F)(F)F)cc1Oc1ccc(-c2ccccc2)cc1` (centres unmarked) [Compound No. 44], the IC50 with H460 cancer cells is above 1000 nM; in assay [1], 9.42 nM.

For the compound `O=[N+]([O-])c1ccc(C(OP(=O)(N2CC2)N2CC2)C(F)(F)F)cc1Oc1ccc(C2CCCC2)cc1` (centres unmarked) [Compound No. 47], in assay [1], the IC50 turned out to be 8.13 nM.

With `O=[N+]([O-])c1ccc(C(OP(=O)(N2CC2)N2CC2)C(F)(F)F)cc1Oc1ccc(C2CCCCC2)cc1` (centres unmarked) [Compound No. 48], the IC50 in assay [1] was 3.7 nM.
